Molecular target: Acetylcholinesterase (Homo sapiens, UniProt P22303)
Assay: Inhibition of human erythrocyte AChE using S-acetylthiocholine iodide as substrate pretreated for 20 mins followed by substrate addition measured after 30 mins by Ellman's method

Sequence of Acetylcholinesterase (P22303 whole entry): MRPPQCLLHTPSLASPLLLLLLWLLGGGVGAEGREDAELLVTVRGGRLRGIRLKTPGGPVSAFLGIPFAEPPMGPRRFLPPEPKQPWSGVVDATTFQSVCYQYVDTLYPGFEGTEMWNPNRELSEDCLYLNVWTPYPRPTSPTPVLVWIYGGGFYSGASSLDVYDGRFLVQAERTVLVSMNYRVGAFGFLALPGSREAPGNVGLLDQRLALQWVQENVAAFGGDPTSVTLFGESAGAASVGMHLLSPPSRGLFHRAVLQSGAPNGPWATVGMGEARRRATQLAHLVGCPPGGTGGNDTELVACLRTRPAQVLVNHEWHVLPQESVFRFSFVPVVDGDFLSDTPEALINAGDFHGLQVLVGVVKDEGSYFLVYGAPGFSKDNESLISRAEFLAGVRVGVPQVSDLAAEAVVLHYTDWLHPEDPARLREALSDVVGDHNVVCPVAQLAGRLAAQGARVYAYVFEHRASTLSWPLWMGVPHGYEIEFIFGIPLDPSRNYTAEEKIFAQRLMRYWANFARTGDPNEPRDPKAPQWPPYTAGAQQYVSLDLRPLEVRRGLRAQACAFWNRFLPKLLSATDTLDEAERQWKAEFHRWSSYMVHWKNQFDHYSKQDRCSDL

## COc1ccc2c(c1O)CN1CCc3cc4c(cc3C1C2)OCO4 (configuration not stated)
  IC50: > 100 µM

## C[C@@]1(c2nccc3cc4c(cc23)OCO4)Oc2ccc3c(c2O1)OCO3
  IC50: > 100 µM

## CO[C@@H]1O[C@](C)(c2nccc3cc4c(cc23)OCO4)c2ccc3c(c21)OCO3
  IC50: > 100 µM

## CN1CCc2cc3c(cc2[C@H]1[C@H]1O[C@@H](O)c2c1ccc1c2OCO1)OCO3
  IC50: > 100 µM

## CO[C@@H]1O[C@H]([C@@H]2c3cc4c(cc3CCN2C)OCO4)c2ccc3c(c21)OCO3
  IC50: > 100 µM

## CO[C@@H]1O[C@@](C)(c2nccc3cc4c(cc23)OCO4)c2ccc3c(c21)OCO3
  IC50: > 100 µM

## c1cc2cc3c(cc2c([C@H]2Oc4ccc5c(c4O2)OCO5)n1)OCO3
  IC50: 78.1 µM

## CN1CCc2cc3c(cc2[C@H]1[C@H]1OC(=O)c2c1ccc1c2OCO1)OCO3
  IC50: > 100 µM

## C[C@@H](c1ccc2c(c1O)OCO2)c1nccc2cc3c(cc12)OCO3
  IC50: > 100 µM

## CO[C@H]1O[C@@](C)(c2nccc3cc4c(cc23)OCO4)c2ccc3c(c21)OCO3
  IC50: 28.3 µM

## CN1CCc2cc3c(cc2C1=O)OCO3
  IC50: > 100 µM

## C[C@]1(c2nccc3cc4c(cc23)OCO4)Oc2ccc3c(c2O1)OCO3
  IC50: > 100 µM

## COC1c2c(ccc3c2OCO3)-c2ccc3cc4c(cc3c2N1C)OCO4 (configuration not stated)
  IC50: 96.8 µM

## c1cc2cc3c(cc2c([C@@H]2Oc4ccc5c(c4O2)OCO5)n1)OCO3
  IC50: > 100 µM

## C[C@H](c1ccc2c(c1O)OCO2)c1nccc2cc3c(cc12)OCO3
  IC50: > 100 µM

## CO[C@H]1O[C@](C)(c2nccc3cc4c(cc23)OCO4)c2ccc3c(c21)OCO3
  IC50: > 100 µM

## CN1CCc2cc3c(cc2[C@@]12C(=O)c1ccc4c(c1[C@@H]2O)OCO4)OCO3
  IC50: > 100 µM

## CN1CCc2cc3c(cc2C(=O)Cc2ccc4c(c2C1)OCO4)OCO3
  IC50: > 100 µM

## CN1CCc2cc3c(cc2C12OCc1c(ccc4c1OCO4)C2=O)OCO3 (racemic)
  IC50: > 100 µM

## CC1(c2nccc3cc4c(cc23)OCO4)OC(O)c2c1ccc1c2OCO1 (single isomer, unassigned)
  IC50: 11.3 µM

## CC1(c2nccc3cc4c(cc23)OCO4)OC(O)c2c1ccc1c2OCO1 (single isomer, unassigned; epimer 1)
  IC50: 12.2 µM

## CN1Cc2c(ccc3c2OCO3)-c2ccc3cc4c(cc3c21)OCO4 [DIHYDROSANGUINARINE]
  IC50: > 100 µM
